# Reference: PubChem BioAssay AID1259407 (Chemical Carcinogenesis Research Information System (CCRIS), 2018)
# Calls of active or inactive are those of the source. The rule behind the calls is not given here.
# Test system: CCRIS mutagenicity, Ames/micronucleus/aberration tests
# Assay: CCRIS mutagenicity studies
# [1] = Test System: AMES SALMONELLA TYPHIMURIUM, Strain/Indicator: TA98, Metabolic Activation: NONE, Method: PREINCUBATION
# [2] = Test System: AMES SALMONELLA TYPHIMURIUM, Strain/Indicator: TA98, Metabolic Activation: NONE, Method: STANDARD PLATE
# [3] = Test System: AMES SALMONELLA TYPHIMURIUM, Strain/Indicator: TA100, Metabolic Activation: NONE, Method: PREINCUBATION
# [4] = Test System: AMES SALMONELLA TYPHIMURIUM, Strain/Indicator: TA100, Metabolic Activation: NONE, Method: STANDARD PLATE
# [5] = Test System: AMES SALMONELLA TYPHIMURIUM, Strain/Indicator: TA102, Metabolic Activation: NONE, Method: STANDARD PLATE
# [6] = Test System: AMES SALMONELLA TYPHIMURIUM, Strain/Indicator: TA1535, Metabolic Activation: NONE, Method: PREINCUBATION
# [7] = Test System: AMES SALMONELLA TYPHIMURIUM, Strain/Indicator: TA1537, Metabolic Activation: NONE, Method: PREINCUBATION
# [8] = Test System: AMES SALMONELLA TYPHIMURIUM, Strain/Indicator: TA97, Metabolic Activation: NONE, Method: STANDARD PLATE
# [9] = Test System: AMES SALMONELLA TYPHIMURIUM, Strain/Indicator: TA97, Metabolic Activation: RAT, LIVER, S-9, AROCLOR 1254, Method: STANDARD PLATE
# [10] = Test System: AMES SALMONELLA TYPHIMURIUM, Strain/Indicator: TA98, Metabolic Activation: RAT, LIVER, S-9, AROCLOR 1254, Method: STANDARD PLATE
# [11] = Test System: AMES SALMONELLA TYPHIMURIUM, Strain/Indicator: TA100, Metabolic Activation: RAT, LIVER, S-9, AROCLOR 1254, Method: STANDARD PLATE
# [12] = Test System: AMES SALMONELLA TYPHIMURIUM, Strain/Indicator: TA102, Metabolic Activation: RAT, LIVER, S-9, AROCLOR 1254, Method: STANDARD PLATE
compound,measurement,setting,value
CC(C)(c1ccc(O)cc1)c1ccc(O)cc1,mutagenic call,"End Point: IN VITRO CHROMOSOMAL ABERRATIONS, Test System: CHO CELLS, Metabolic Activation: RAT, LIVER, S-9, AROCLOR 1254",inactive; negative; previous trial yielded positive result at 50 ug/ml but no dose-respons
same,mutagenic call,"End Point: In vitro micronucleus, Test System: Human lymphoblastoid AHH-1 cells, Metabolic Activation: None",active; positive (all doses >10.8 ug/ml)
same,mutagenic call,"End Point: In vivo micronucleus, Test System: Bone marrow polychromatic erythrocytes, Species: Mouse, Strain/Sex: Swiss/Male, female, Route: Oral",inactive; negative
same,mutagenic call,"Test System: AMES SALMONELLA TYPHIMURIUM, Strain/Indicator: TA97A, Metabolic Activation: NONE, Method: STANDARD PLATE",inactive; negative
same,mutagenic call,"Test System: AMES SALMONELLA TYPHIMURIUM, Strain/Indicator: TA97A, Metabolic Activation: RAT LIVER S-9, PHENOBARBITAL AND BETA-NAPHTHAFLAVONE, Method: STANDARD PLATE",inactive; negative
same,mutagenic call,[1],inactive; negative
same,mutagenic call,[2],inactive; negative
same,mutagenic call,"Test System: AMES SALMONELLA TYPHIMURIUM, Strain/Indicator: TA98, Metabolic Activation: RAT LIVER S-9, AROCLOR 1254, Method: STANDARD PLATE",inactive; negative
same,mutagenic call,"Test System: AMES SALMONELLA TYPHIMURIUM, Strain/Indicator: TA98, Metabolic Activation: RAT LIVER S-9, PHENOBARBITAL AND BETA-NAPHTHAFLAVONE, Method: STANDARD PLATE",inactive; negative
same,mutagenic call,"Test System: AMES SALMONELLA TYPHIMURIUM, Strain/Indicator: TA98, Metabolic Activation: RAT LIVER S-9, PHENOBARBITAL AND BETA-NAPHTHOFLAVONE, Method: PREINCUBATION",inactive; negative
same,mutagenic call,"Test System: AMES SALMONELLA TYPHIMURIUM, Strain/Indicator: TA98, Metabolic Activation: S-9, Method: PREINCUBATION",inactive; negative
same,mutagenic call,[3],inactive; negative
same,mutagenic call,[4],inactive; negative
same,mutagenic call,"Test System: AMES SALMONELLA TYPHIMURIUM, Strain/Indicator: TA100, Metabolic Activation: RAT LIVER S-9, AROCLOR 1254, Method: STANDARD PLATE",inactive; negative
same,mutagenic call,"Test System: AMES SALMONELLA TYPHIMURIUM, Strain/Indicator: TA100, Metabolic Activation: RAT LIVER S-9, PHENOBARBITAL AND BETA-NAPHTHAFLAVONE, Method: STANDARD PLATE",inactive; negative
same,mutagenic call,"Test System: AMES SALMONELLA TYPHIMURIUM, Strain/Indicator: TA100, Metabolic Activation: RAT LIVER S-9, PHENOBARBITAL AND BETA-NAPHTHOFLAVONE, Method: PREINCUBATION",inactive; negative
same,mutagenic call,"Test System: AMES SALMONELLA TYPHIMURIUM, Strain/Indicator: TA100, Metabolic Activation: S-9, Method: PREINCUBATION",inactive; negative
same,mutagenic call,[5],inactive; negative
same,mutagenic call,"Test System: AMES SALMONELLA TYPHIMURIUM, Strain/Indicator: TA102, Metabolic Activation: RAT LIVER S-9, PHENOBARBITAL AND BETA-NAPHTHAFLAVONE, Method: STANDARD PLATE",inactive; negative
same,mutagenic call,[6],inactive; negative
same,mutagenic call,"Test System: AMES SALMONELLA TYPHIMURIUM, Strain/Indicator: TA1535, Metabolic Activation: RAT LIVER S-9, PHENOBARBITAL AND BETA-NAPHTHOFLAVONE, Method: PREINCUBATION",inactive; negative
same,mutagenic call,[7],inactive; negative
same,mutagenic call,"Test System: AMES SALMONELLA TYPHIMURIUM, Strain/Indicator: TA1537, Metabolic Activation: RAT LIVER S-9, PHENOBARBITAL AND BETA-NAPHTHOFLAVONE, Method: PREINCUBATION",inactive; negative
same,mutagenic call,"Test System: CHINESE HAMSTER V-79, Strain/Indicator: V-79 (HPRT)/6-THIOGUANINE, Metabolic Activation: NONE",inactive; negative
same,mutagenic call,"Test System: E.COLI, Strain/Indicator: WP2UVRA, Metabolic Activation: NONE, Method: PREINCUBATION",inactive; negative
same,mutagenic call,"Test System: E.COLI, Strain/Indicator: WP2UVRA, Metabolic Activation: RAT LIVER S-9, PHENOBARBITAL AND BETA-NAPHTHOFLAVONE, Method: PREINCUBATION",inactive; negative
CO[C@@H]1[C@H](C)O[C@@H](O[C@@H]2C[C@H](Oc3cc(O)c4c(O)c5c(cc4c3)C[C@@H]([C@H](OC)C(=O)[C@@H](O)[C@@H](C)O)[C@H](O[C@@H]3C[C@H](OC4C[C@H](O)[C@@H](O)[C@H](C)O4)[C@@H](O)[C@H](C)O3)C5=O)O[C@H](C)[C@@H]2O)C[C@@H]1O (some centres undefined),mutagenic call,"Test System: CHINESE HAMSTER OVARY, Strain/Indicator: CHO (HGPRT)/6-THIOGUANINE, Metabolic Activation: NONE, Method: PREINCUBATION",active; positive
CC1(C)CC[C@]2(C(=O)O)CC[C@]3(C)C(=CC[C@@H]4[C@@]5(C)C[C@H](O)[C@H](O[C@@H]6O[C@H](CO)[C@@H](O)[C@H](O)[C@H]6O)C(C)(C(=O)O)C5CC[C@]43C)[C@H]2C1 (some centres undefined),mutagenic call,[8],inactive; negative
same,mutagenic call,[9],inactive; negative
same,mutagenic call,[2],inactive; negative
same,mutagenic call,[10],inactive; negative
same,mutagenic call,[4],inactive; negative
same,mutagenic call,[11],inactive; negative
same,mutagenic call,[5],inactive; negative
same,mutagenic call,[12],inactive; negative
Clc1cccnc1,mutagenic call,[8],inactive; negative
same,mutagenic call,[9],inactive; negative
same,mutagenic call,[2],inactive; negative
same,mutagenic call,[10],inactive; negative
same,mutagenic call,[4],inactive; negative
same,mutagenic call,[11],inactive; negative
same,mutagenic call,[5],inactive; negative
same,mutagenic call,[12],inactive; negative
same,mutagenic call,"Test System: MOUSE LYMPHOMA, Strain/Indicator: L5178Y (TK+/TK-), Metabolic Activation: NONE",active; positive
same,mutagenic call,"Test System: MOUSE LYMPHOMA, Strain/Indicator: L5178Y (TK+/TK-), Metabolic Activation: RAT, LIVER, S-9, AROCLOR 1254",active; positive
O=c1cc2ccc3cccc4ccc([nH]1)c2c34,mutagenic call,[2],active; positive
same,mutagenic call,[10],active; positive
same,mutagenic call,[4],inactive; negative
same,mutagenic call,[11],active; positive
O=c1c2c(c3c(ccc4ccc[nH]c43)c1O)O2,mutagenic call,[4],active; positive
O=[N+]([O-])c1ccc(NCCO)c(OCCO)c1,mutagenic call,"Test System: AMES SALMONELLA TYPHIMURIUM, Strain/Indicator: TA98, Metabolic Activation: HAMSTER, LIVER, S-9, AROCLOR 1254 (10%), Method: PREINCUBATION",active; positive
same,mutagenic call,[1],active; positive
same,mutagenic call,"Test System: AMES SALMONELLA TYPHIMURIUM, Strain/Indicator: TA98, Metabolic Activation: RAT, LIVER, S-9, AROCLOR 1254 (10%), Method: PREINCUBATION",active; positive
same,mutagenic call,"Test System: AMES SALMONELLA TYPHIMURIUM, Strain/Indicator: TA100, Metabolic Activation: HAMSTER, LIVER, S-9, AROCLOR 1254 (10%), Method: PREINCUBATION",active; positive
same,mutagenic call,[3],active; positive
same,mutagenic call,"Test System: AMES SALMONELLA TYPHIMURIUM, Strain/Indicator: TA100, Metabolic Activation: RAT, LIVER, S-9, AROCLOR 1254 (10%), Method: PREINCUBATION",active; positive
same,mutagenic call,"Test System: AMES SALMONELLA TYPHIMURIUM, Strain/Indicator: TA1535, Metabolic Activation: HAMSTER, LIVER, S-9, AROCLOR 1254 (10%), Method: PREINCUBATION",inactive; negative
same,mutagenic call,[6],active; positive
same,mutagenic call,"Test System: AMES SALMONELLA TYPHIMURIUM, Strain/Indicator: TA1535, Metabolic Activation: RAT, LIVER, S-9, AROCLOR 1254 (10%), Method: PREINCUBATION",inactive; negative
same,mutagenic call,"Test System: AMES SALMONELLA TYPHIMURIUM, Strain/Indicator: TA1537, Metabolic Activation: HAMSTER, LIVER, S-9, AROCLOR 1254 (10%), Method: PREINCUBATION",active; positive
same,mutagenic call,[7],active; positive
same,mutagenic call,"Test System: AMES SALMONELLA TYPHIMURIUM, Strain/Indicator: TA1537, Metabolic Activation: RAT, LIVER, S-9, AROCLOR 1254 (10%), Method: PREINCUBATION",active; positive
O=C(Cl)CCl,mutagenic call,"End Point: IN VITRO CHROMOSOMAL ABERRATIONS, Test System: CHINESE HAMSTER LUNG (CHL), Metabolic Activation: NONE",inactive; negative
same,mutagenic call,"End Point: IN VITRO CHROMOSOMAL ABERRATIONS, Test System: CHINESE HAMSTER LUNG (CHL), Metabolic Activation: RAT, LIVER, S-9, KC-400",inactive; negative
